Measurements reported in US6906078B2, “Method of using (H+/K+) ATPase inhibitors as antiviral agents” (Pharmacia Corporation, priority 1994, dated 2005).
Read-outs that look alike come from different tables or passages of the source.

Experiments:
[1] = system: gastric acid secretion; test: Inhibition of gastric acid secretion in gastric fistula beagle dogs (histamine-stimulated); type: in vivo; conditions: for inhibition in vivo at 3 mg/kg: Canis lupus familiaris, 4 h, read-out: Gastric-Fistula Beagle % Inhibition (3 mg/kg dose)
Excerpt: Adult female beagle dogs weighing 6 to 11 kilograms obtained from Laboratory Research Enterprises (Kalamazoo, Mich.) or from Hazelton Research Animals (Cumberland, Va.) were surgically implanted with a simple Thomas-type gastric cannula. After recovery from surgery, the dogs were trained to stand quietly, fully conscious, in Pavlov-type dog restraining slings and were acclimated to intravenous infusion of histamine dihydrochloride. During the course of these studies, no dog was used more than once a week. All dogs were deprived of food, but not water, for 18 hours prior to each assay. Each dog was initially infused with 0.15 M sodium chloride solution at a constant rate of […]. The volume of gastric secretions, collected in plastic bottles affixed to the cannula, were measured to the nearest 0.1 ml at 30 minute intervals. One of the following protocols was followed, depending on the route chosen for administration of test compound.
Intravenous dosing: Following a 30-minute basal secretion period, test compounds were administered intravenously (i.v.). At the end of an additional 30 minute period, the saline infusion was replaced with histamine dihydrochloride in saline administered at a rate 15 mcg per kilogram of body weight per hour. Histamine stimulation was maintained for a maximum of four hours during which time gastric secretions were collected every 30 minutes. The pH and titratable acidity were determined for samples from each collection period.
Intragastric dosing: Following a 30-minute basal secretion period, he collection bottles were removed, dosing plugs here inserted, and test compounds were administered intragastrically (i.g.) At the end of a 30-minute drug absorption period, the stomachs were emptied, the collection bottles were reattached, and collections were resumed at 30-minute intervals. Simultaneously, the saline infusion was replaced with a continuous intravenous infusion of histamine dihydrochloride in saline administered for four hours at a rate 15 mcg per kilogram of body weight per hour.
Intraduodenal dosing: Dogs were also equipped with duodenal cannulas for intraduodenal (i.d.) administration of test compounds. Dosing was otherwise performed as described for intragastric dosing.
Data from each protocol were analyzed for three gastric sample variables: volume of gastric juice, acid concentration, and total acid output. Percent inhibition for each four-hour experimental period was determined for each parameter by comparison with 3 to 4 controls in which […]. Estimates of ED50's were determined from dose response curves.

[2] = molecular target: T1, (H+/K+)-ATPase (Canis lupus familiaris, UniProt P50996); test: Inhibition of (H+/K+)-ATPase from canine gastric mucosa (inorganic phosphate release); type: biochemical; conditions: canine gastric mucosa microsomes, pH 6.0, 30 min preincubation at 37° C.; read-out: (H+/K+)-ATPase IC50
T1 construct: The microsomes retained at the 15%-30% sucrose interface, after centrifugation at 250,000×g for sixty minutes, were used as the source of (H^+/K^+)-ATPase; from tissue; host or cells: gastric glandular mucosa of mongrel dogs (microsomal fraction, lyophilized)
T1 sequence (P50996 whole entry): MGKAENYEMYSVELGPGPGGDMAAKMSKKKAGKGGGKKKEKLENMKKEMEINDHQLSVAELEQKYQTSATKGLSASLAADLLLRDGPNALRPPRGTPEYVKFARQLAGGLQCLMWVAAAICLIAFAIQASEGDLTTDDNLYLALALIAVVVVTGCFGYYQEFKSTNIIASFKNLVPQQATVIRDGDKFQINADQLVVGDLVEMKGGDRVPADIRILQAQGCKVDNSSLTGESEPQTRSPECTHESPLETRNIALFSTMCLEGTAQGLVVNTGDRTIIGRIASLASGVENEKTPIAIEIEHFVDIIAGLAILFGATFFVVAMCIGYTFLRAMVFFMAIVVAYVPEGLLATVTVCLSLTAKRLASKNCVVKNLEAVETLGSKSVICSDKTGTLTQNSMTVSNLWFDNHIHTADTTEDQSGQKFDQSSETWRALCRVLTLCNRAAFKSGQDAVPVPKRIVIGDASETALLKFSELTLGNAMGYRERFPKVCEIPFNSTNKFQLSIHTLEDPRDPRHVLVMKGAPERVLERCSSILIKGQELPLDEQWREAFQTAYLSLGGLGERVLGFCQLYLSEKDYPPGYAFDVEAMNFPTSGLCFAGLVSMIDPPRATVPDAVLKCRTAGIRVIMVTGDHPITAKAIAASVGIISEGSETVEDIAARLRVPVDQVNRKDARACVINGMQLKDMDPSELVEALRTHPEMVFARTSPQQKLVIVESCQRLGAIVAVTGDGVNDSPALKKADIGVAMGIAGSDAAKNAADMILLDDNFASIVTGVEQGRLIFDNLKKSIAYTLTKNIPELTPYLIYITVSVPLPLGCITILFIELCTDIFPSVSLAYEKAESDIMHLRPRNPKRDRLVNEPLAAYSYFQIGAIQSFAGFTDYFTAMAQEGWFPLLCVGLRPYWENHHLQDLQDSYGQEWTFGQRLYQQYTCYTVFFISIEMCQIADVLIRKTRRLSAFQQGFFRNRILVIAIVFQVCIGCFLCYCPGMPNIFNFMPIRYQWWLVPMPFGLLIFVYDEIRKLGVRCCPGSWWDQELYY
T1 sequence (P33704 whole entry partner): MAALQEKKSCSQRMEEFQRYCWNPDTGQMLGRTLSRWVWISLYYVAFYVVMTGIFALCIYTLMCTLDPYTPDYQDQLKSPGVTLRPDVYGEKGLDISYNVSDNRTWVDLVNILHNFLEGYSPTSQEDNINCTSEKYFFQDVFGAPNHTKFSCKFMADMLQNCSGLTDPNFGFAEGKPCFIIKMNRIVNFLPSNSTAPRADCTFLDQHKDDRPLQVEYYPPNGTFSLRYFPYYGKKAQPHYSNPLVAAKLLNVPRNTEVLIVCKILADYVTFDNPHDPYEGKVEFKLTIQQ
Experimental: Mongrel dogs weighing 15 to 25 kilograms were fasted for twenty-four hours, with water provided ad libitum. The animals were anesthetized with pentobarbital and the stomachs were removed. Subsequent tissue manipulations and subcellular fractionations were performed at 0° C. to 4° C. After the stomachs were cut open and rinsed with tap water, the antral and cardiac regions were removed and the remaining tissue was rinsed three times in saline. The glandular mucosa was removed mechanically, chopped finely in a medium containing 10 mM Tris hydrochloride (pH 7.4) and 250 mM sucrose, and homogenized. The homogenate was centrifuged at 20,000×g for twenty minutes and the pellet discarded. The supernatant was then centrifuged at 150,000×g for ninety minutes and the supernatant discarded. The pellet was resuspended in the Tris-HCl/sucrose medium by homogenization. Part (2 ml) of the resultant microsomal suspension was layered onto a step gradient consisting of 9 ml of 15% sucrose above 12 ml of 30% sucrose, each sucrose solution being buffered with 10 mM Tris hydrochloride (pH 7.4) containing 0.01% sodium azide. The microsomes retained at the 15%-30% sucrose interface, after centrifugation at 250,000×g for sixty minutes, were used as the source of (H^+/K^+)-ATPase. Microsomal preparations were lyophilized, a process that assured potassium ion permiability, and stored at −10° C. until used.
(H^+/K^+)-ATPase activity for each test compound was determined, in duplicate, by measuring the release of inorganic phosphate, which was assayed according to the method of J. ChandraRajan and L. Klein, Anal. Biochem., 72 , 407 (1976). The (H^+/K^+)-ATPase assay medium consisted of 20 mm mes-Tris (pH 6.0), 5 mM magnesium chloride, 25 mM sucrose, and 4 mM Tris-ATP with or without 20 mM potassium chloride in a total volume of 2 ml. Microsomal suspensions (20 to 60 mcl, containing about 25 mcg protein) were added to the assay medium, without Tris-ATP, and then preincubated with a test compound for thirty minutes at 37° C. The assay was initiated by adding Tris-ATP and the mixture was incubated another thirty minutes at 37° C. A 200-mcl aliquot of the assay mixture was then added to 1.4 ml of a solution consisting of 0.1 M sodium acetate (pH 4.0) and 10% sodium dodecylsulfate, followed by the addition of 200 mcl each of 1% ammonium molybdate and 1% ascorbic acid. At least fifteen minutes later, the optical absorbance at 870 nm (which was proportional to inorganic phosphate concentration up to 100 nmoles per tube, as determined by a standard curve) was obtained. Enzyme activity was linear with incubation time.
(H^+/K^+)-ATPase activity is represented by the difference between the measured activities in the presence of potassium-ion (K^+-stimulated) and in the absence of potassium ion (basal).

[3] = intraduodenal, 3 mg/kg i.d., histamine-stimulated, four-hour period
[4] = iv, 3 mg/kg i.v., histamine-stimulated, four-hour period

Row | melting point [°C] | IC50 [2] [µM] | SMILES | inhibition in vivo at 3 mg/kg [1, 3] [%] | inhibition in vivo at 3 mg/kg [1, 4] [%] | Gastric-Fistula Beagle % Inhibition (3 mg/kg dose) ([1]; 3 mg/kg i.v., histamine-stimulated, four-hour period) [i.v. %] | inhibition in vivo at 3 mg/kg ([1]; intraduodenal) [%] | inhibition in vivo at 3 mg/kg ([1]; iv) [%]
1 | 164 to 165 | 4.3 | Nc1ccccc1C[S+]([O-])c1nc2ccccc2[nH]1 (centres unmarked) [Example 3, 2-[(1H-Benzimidazol-2-ylsulfinyl)methyl]benzenamine] | 53 | 59 | – | – | –
2 | 201 to 202.5 | > 100 | CC(=O)Nc1ccccc1C[S+]([O-])c1nc2ccccc2[nH]1 (centres unmarked) [Example 6, N-[2-[(1H-Benzimidazol-2-ylsulfinyl)methyl]phenyl]acetamide] | – | 37 | – | – | –
3 | – | 7.4 | Cc1cccc2[nH]c([S+]([O-])Cc3ccccc3N)nc12.Cc1cccc2[nH]c([S+]([O-])Cc3ccccc3N)nc12.O (centres unmarked) [Example 8, 2-[[(4-Methyl-1H-benzimidazol-2-yl)sulfinyl]methyl]benzenamine hemihydrate] | – | – | 60 | – | –
4 | 210 to 211 | 130 | Nc1ccc(Cl)cc1C[S+]([O-])c1nc2ccccc2[nH]1 (centres unmarked) [Example 16, 2-[(1H-Benzimidazol-2-ylsulfinyl)methyl]-4-chlorobenzenamine] | – | 24 | – | – | –
5 | 173.5 to 175.5 | 24 | Nc1cc(Cl)ccc1C[S+]([O-])c1nc2ccccc2[nH]1 (centres unmarked) [Example 18, 2-[(1H-Benzimidazol-2-ylsulfinyl)methyl]-5-chlorobenzenamine] | – | 13 | – | – | –
6 | – | 0.66 | Cc1cccc(N)c1C[S+]([O-])c1nc2ccccc2[nH]1 (centres unmarked) [Example 24, 2-[(1H-Benzimidazol-2-ylsulfinyl)methyl]-3-methylbenzenamine ¼ hydrate] | – | 73 | – | – | –
7 | – | 2.1 | Cc1ccc(N)c(C[S+]([O-])c2nc3ccccc3[nH]2)c1 (centres unmarked) [Example 26, 2-[(1H-Benzimidazol-2-ylsulfinyl)methyl]-4-methylbenzenamine] | – | 67 | – | – | –
8 | 156 to 157 | 3.2 | Cc1cccc(C[S+]([O-])c2nc3ccccc3[nH]2)c1N (centres unmarked) [Example 28, 2-[(1H-Benzimidazol-2-ylsulfinyl)methyl]-6-methylbenzenamine] | 44 | 93 | – | – | –
9 | 142 to 144 | 5.4 | COc1ccc2[nH]c([S+]([O-])Cc3cccc(C)c3N)nc2c1 (centres unmarked) [Example 36, 2-[[(5-Methoxy-1H-benzimidazol-2-yl)sulfinyl]methyl]-6-methylbenzenamine] | 72 | 96 | – | – | –
10 | 155 to 156 | 2 | CCc1ccc(N)c(C[S+]([O-])c2nc3ccccc3[nH]2)c1 (centres unmarked) [Example 37, 2-[(1H-Benzimidazol-2-ylsulfinyl)methyl]-4-ethylbenzenamine] | 62 | – | – | – | –
11 | – | 3.9 | CCc1cccc(C[S+]([O-])c2nc3ccccc3[nH]2)c1N (centres unmarked) [Example 38, 2-[(1H-Benzimidazol-2-ylsulfinyl)methyl]-6-ethylbenzenamine] | 21 | – | – | – | –
12 | 185 to 187 | > 100 | Nc1ccc(C(F)(F)F)cc1C[S+]([O-])c1nc2ccccc2[nH]1 (centres unmarked) [Example 49, 2-[(1H-Benzimidazol-2-ylsulfinyl)methyl]-4-(trifluoromethyl)benzenamine] | 16 | – | – | – | –
13 | 146 to 148 | 2.6 | CCCCc1ccc(N)c(C[S+]([O-])c2nc3ccccc3[nH]2)c1 (centres unmarked) [Example 51, 2-[(1H-Benzimidazol-2-ylsulfinyl)methyl]-4-butylbenzenamine] | 19 | – | – | – | –
14 | 184 to 185 | 24.9 | Nc1ccc(F)cc1C[S+]([O-])c1nc2ccccc2[nH]1 (centres unmarked) [Example 76, 2-[(1H-Benzimidazol-2-ylsulfinyl)methyl]-4-fluorobenzenamine] | – | – | – | – | –
15 | – | 2.5 | Nc1cccc(C[S+]([O-])c2nc3ccccc3[nH]2)n1 (centres unmarked) [Example 85, 6-[(1H-Benzimidazol-2-ylsulfinyl)methyl]-2-pyridinamine] | – | 59 | – | – | –
16 | – | 4.5 | COc1ccc2[nH]c([S+]([O-])Cc3cccc(N)n3)nc2c1 (centres unmarked) [Example 91, 6-[[(5-Methoxy-1H-benzimidazol-2-yl)sulfinyl]-methyl]-2-pyridinamine] | – | 46 | – | – | –
17 | – | 20 | CCNc1cccc(C[S+]([O-])c2nc3ccccc3[nH]2)n1 (centres unmarked) [Example 109, 6-[(1H-Benzimidazol-2-ylsulfinyl)methyl]-N-ethyl-2-pyridinamine] | 58 | – | – | – | –

Row | SMILES | melting point [°C] | IC50 [2] [µM] | inhibition in vivo at 3 mg/kg [1, 3] [%] | inhibition in vivo at 3 mg/kg [1, 4] [%] | Gastric-Fistula Beagle % Inhibition (3 mg/kg dose) ([1]; 3 mg/kg i.v., histamine-stimulated, four-hour period) [i.v. %] | inhibition in vivo at 3 mg/kg ([1]; intraduodenal) [%] | inhibition in vivo at 3 mg/kg ([1]; iv) [%]
18 | COC(=O)c1cccc(C[S+]([O-])c2nc3ccccc3[nH]2)c1N (centres unmarked) [Example 69, Methyl 2-amino-3-[(1H-benzimidazol-2-ylsulfinyl)methyl]benzoate hydrate] | – | 153 | – | – | – | 28 | –
19 | Nc1ncccc1C[S+]([O-])c1nc2ccccc2[nH]1 (centres unmarked) [Example 81, 3-[(1H-Benzimidazol-2-ylsulfinyl)methyl]-2-pyridinamine hydrate] | – | ≥ 100 | – | – | – | – | 41
